According to article PMC12790360, “Characterization of Non‐Specific Electrostatic Interactions of Cationic Peptides with DNA Origami and Their Functional Consequences” (Small Methods, 2025):
Ends that are not written are not given here. Peptide text beside a SMILES is read from it.

Tested on: ssDNA
Experiment: Centrifugation-based pull-down (solubility) assay
Assay type: physicochemical
Details: not given
Procedure: Next, to quantify the propensity of these peptides to induce the aggregation, we developed a centrifugation‐based pull‐down assay (Figure 1e). In this assay, the cationic peptide pulls down the interacting BCN‐free ssDNA, forming large macromolecular aggregates that are sedimented as a pellet. The amount of ssDNA remaining in the soluble supernatant is then determined by measuring its absorbance at 260 nm.^[ [40], [41] ^] […] The soluble fraction for both peptides increased as the NaCl concentration was raised, confirming that the aggregation is driven by electrostatic interactions. […] To determine the soluble fraction of ssDNA after mixing with peptides, the mixtures were prepared as described above and then centrifuged at 16 000 × g for 5 min at room temperature. The supernatants were carefully collected, and the ssDNA concentration was measured by absorbance at 260 nm (OD260) on a NanoDrop spectrophotometer. The soluble fraction was calculated as OD260,supernatant/OD260,initial, where OD260,initial corresponds to the absorbance of the ssDNA reference solution (0.07 mM in 1× TE buffer without peptide or salt).

| Molecule | Soluble ssDNA fraction in supernatant after centrifugation with peptide |
| --- | --- |
| EQLESIINFEKLTEWT [AP2] | highly soluble across all conditions |
| ISQAVHAAHAEINEAGR [AP3] | weaker aggregation tendencies compared with CP1 and CP2 |

Same assay, conditions: BCN-free ssDNA 0.07 mM in 1x TE, tenfold molar excess peptide, varying NaCl, 16 000 x g 5 min room temperature, OD260 supernatant/initial, n = 3

| Molecule | Soluble ssDNA fraction in supernatant after centrifugation with peptide |
| --- | --- |
| CC[C@H](C)[C@H](NC(=O)[C@H](CCCCN)NC(=O)[C@H](CCC(N)=O)NC(=O)[C@H](CC(N)=O)NC(=O)[C@H](CS)NC(=O)[C@H](C)NC(=O)[C@H](C)NC(=O)CNC(=O)[C@H](CCCNC(=N)N)NC(=O)[C@H](Cc1c[nH]c2ccccc12)NC(=O)CNC(=O)[C@@H]1CCCN1C(=O)[C@H](CCCNC(=N)N)NC(=O)[C@@H](N)CS)C(=O)N[C@@H](CC(C)C)C(=O)O [CP4] (H-CRPGWRGAACNQKIL-OH) | highly soluble across all conditions |
| CC[C@H](C)[C@H](NC(=O)[C@@H](NC(=O)[C@H](CC(C)C)NC(=O)[C@H](CO)NC(=O)[C@H](Cc1c[nH]cn1)NC(=O)[C@@H](NC(=O)[C@@H](NC(=O)CNC(=O)[C@H](Cc1c[nH]cn1)NC(=O)[C@H](CCCNC(=N)N)NC(=O)[C@H](CCCNC(=N)N)NC(=O)[C@H](CCSC)NC(=O)[C@H](CCC(=O)O)NC(=O)[C@H](Cc1ccc(O)cc1)NC(=O)[C@H](CCCCN)NC(=O)[C@H](CC(N)=O)NC(=O)CNC(=O)[C@@H]1CCCN1C(=O)[C@H](CS)NC(=O)[C@H](CC(C)C)NC(=O)[C@H](CCC(=O)O)NC(=O)[C@@H](NC(=O)CNC(=O)[C@H](CCC(=O)O)NC(=O)[C@@H](N)CCCNC(=N)N)C(C)C)[C@@H](C)O)[C@@H](C)O)C(C)C)C(=O)N[C@@H](Cc1c[nH]cn1)C(=O)N[C@@H](CC(=O)O)C(=O)O [NP1] | weaker aggregation tendencies compared with CP1 and CP2 |
| GGGSEEEYRSRKYSSWYVALKR [CP2] | salt‐dependent solubility |
| KLTWQELYQLKYKGI [CP6] | weaker aggregation tendencies compared with CP1 and CP2 |
| PKKKR [CP5, brain-derived neurotrophic factor (BDNF) mimic peptide, cyclic, cationic, net charge +3] | weaker aggregation tendencies compared with CP1 and CP2 |
| RGIDKRHWNSQ [CP3] | weaker aggregation tendencies compared with CP1 and CP2 |
| SSSHPIFHRGEFSV [NP5] | weaker aggregation tendencies compared with CP1 and CP2 |
| YRSRKYSSWYVALKR [CP1] | salt‐dependent solubility |
